Results: publication PMC5352194, “Toward the development of a novel non-RGD cyclic peptide drug conjugate for treatment of human metastatic melanoma” (Oncotarget, 2016)

What was measured:
[1] = tested on: WM-266-4 human metastatic melanoma cells; test: Cell survival test (XTT assay), WM-266-4; assay type: cell-based; details: WM-266-4 cells, 10μM, 48 hours, three repeats in quadruplicates
Experimental: (§1) The cytotoxicity of the compounds was determined by measuring the mitochondrial enzyme activity, using a commercial XTT assay kit (#20-30-100, Biological Industries, Beit-Haemek, Israel) according to the manufacturer protocol using 2×10^3 cells/well of a 96–well plate. The cells were cultured for 24 hours in growth medium followed by additional 48 hours with growth medium supplemented with different concentrations of the tested substances. The absorbance of the XTT reagent was measured with a TECAN Infinite M200 ELISA reader. The absorbencies were normalized to the absorbance of cells grown in medium and solvent. All the tests were repeated three times in quadruplicates.

[2] = tested on: non-malignant HEK293 cells; test: Cell survival test (XTT assay), HEK293; assay type: cell-based, human; details: 48 hours, XTT (experiment repeated as for WM-266-4, 10μM), three repeats in quadruplicates
Experimental: as §1

[3] = tested on: active caspase 3 in HEK293 cells; test: Western blot, active caspase 3 in HEK293 cells; assay type: cell-based, human
Experimental: (§2) The cells were scraped and washed with PBS buffer. Cell lysates were prepared by sonication in 1 X SDS sample buffer supplemented with protease inhibitor cocktail (MBS539134, Millipore) and boiling for 10 min. The proteins were separated by SDS-PAGE and transferred to nitrocellulose membranes. The following antibodies were used for western blotting: active caspase 3 (C8487, Sigma), γH2AX (05-636, Millipore) and histone H3 (05-928, Millipore). The band intensities in a representative experiment were quantified by the ImageJ program.

[4] = tested on: γH2A.X in HEK293 cells; test: Western blot, γH2A.X (DSBs) in HEK293 cells; assay type: cell-based, human; details: 3 hours
Experimental: as §2

[5] = Chemo-stability (lactone ring opening), LC-MS; assay type: physicochemical; details: chemical stability, 0.1 mM in PBS pH 7.4, 37°C, 5 h incubation, samples injected twice
Experimental: Electron spray mass spectra (ESI-MS) were obtained using an Autoflex III smart-beam (MALDI, Bruker), Q-TOF micro (Waters) or an LCQ Fleet™ ion trap mass spectrometer (Finnigan/Thermo). HPLC/LC-MS analyses were made using Agilent infinity 1260 connected to Agilent quadruple LC-MS 6120 series equipped with ZORBAX SB-C18, 50 × 2.1 mm, 1.8 μm column. In all cases the eluent solvents were A (0.1% TFA in H2O) and B (0.1% TFA in ACN) and the elution gradient profile was: 100% A for first 4 min, 8 min (from min 4 to min 12) during which it reached 100% B, 4 min (from min 12 to min 16) of 100% B, 2 min (from min 16 to min 18) during which it returned back to A, and 2 min (from min 18 to min 20) of 100% A. The UV detection was at 254 nm. Column temperature was kept at 50°C. The flow rate was of 0.4 ml/min. The MS fragmentor was tuned on 100V on positive or negative mode.
0.1 mM CPT and ALOS4-CPT were incubated in acetate buffer at pH 4.5 and in PBS at pH 7.4 at 37°C. During the incubation period (24h - 144h), aliquots were removed at different time intervals, filtered and analyzed by LC-MS.

[6] = tested on: WM-266-4 cells; test: Confocal analysis of intracellular localization of CPT in live cells; assay type: cell-based, human; details: live WM-266-4 cells, 10 μM, 1 h, CPT fluorescence
Description: Fluorescent images of ALOS4-FITC were acquired by Photometrics CoolSNAP HQ2 camera mounted on an Olympus iX81 fluorescent microscope. For confocal microscopy analysis the cells were transfected with a plasmid expressing GFP-fused histone H1E (pH1E-GFP) using Xfect polymer (ST0152, Clontech Laboratories, CA, USA) and were stained with CytoPainter Lysosomal Staining Kit - Red Fluorescence (ab112137, Abcam, Cambridge, MA, USA). Images were collected with a Zeiss LSM700 confocal microscope.

## CN(C)CCN1C(=O)c2cccc3cc(N)cc(c23)C1=O [AM, Amonafide]
[1]
  Cell survival, % of the control cells: 48%
[2]
  Cell survival, % of the control cells: 27%

## COc1cc([C@@H]2c3[nH]c4ccccc4c3C[C@H]3COC(=O)N32)cc(OC)c1O [AZA, Azatoxin]
[1]
  Cell survival, % of the control cells: 68%
[2]
  Cell survival, % of the control cells: 44%

## CC[C@@]1(O)C(=O)OCc2c1cc1n(c2=O)Cc2cc3ccccc3nc2-1 [CPT, Camptothecin]
[3]; 3 hours
  Increase in the levels of active caspase 3: ~2 fold
[3]; 24 hours
  Increase in the levels of active caspase 3: more than 5 fold
[1]
  Cell survival, % of the control cells: 65%
[4]
  Increase in the levels of γH2A.X: ~2 fold
[5]
  CPT that underwent lactone ring opening to carboxylate: ~40%
[2]
  Cell survival, % of the control cells: 16%
[6]
  Intracellular localization of CPT: accumulation of CPT inside the nucleus and to some less degree in the lysosome
